PubChem BioAssay (NCI)
“And” between values parts separate entries of the source, which are not always exact repeats. Equal entries are not always repeated.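 Interpolation was linear, between the two tested concentrations surrounding the appropriate level; five concentrations were tested over 48 hours in 96-well plates. The concentration for 50% growth inhibition is given as GI50. At the TGI there is no net growth.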

How the values were obtained:
Test in all cases: NCI-60 cell line screen, 48 h
[1] = system: OVCAR-5 ovarian
[2] = system: SN12C renal
[3] = system: HCT-116 colon
[4] = system: OVCAR-3 ovarian
[5] = system: OVCAR-4 ovarian
[6] = system: SK-MEL-5 melanoma
[7] = system: K-562 leukemia
[8] = system: A549 NSCLC
[9] = system: CAKI-1 renal
[10] = system: SK-OV-3 ovarian

SMILES | TGI [1] | TGI [2] | TGI [3] | TGI [4] | TGI [5] | TGI [6] | TGI [7] | TGI [8] | TGI [9] | TGI [10] | GI50 [8] | GI50 [9] | GI50 [1] | GI50 [2] | GI50 [3] | GI50 [4] | GI50 [5] | GI50 [6] | GI50 [7] | GI50 [10]
CC(C)Oc1cc(O)c2c(c1)OCC=C2CCC(=O)O | > 100 µM | 69.3 µM | 66.5 µM | > 100 µM | > 100 µM | 36.5 µM | > 100 µM | > 100 µM | > 100 µM | > 100 µM |  |  |  |  |  |  |  |  |  | 
CCN(CC)CCNc1n[n+]([O-])c2ccccc2[n+]1[O-] | 38.6 µM and 35.8 µM | 19.1 µM and 18.9 µM | 26.6 µM and 31 µM | 26.2 µM | 11.2 µM and 73.6 µM | 4.86 µM and 3.31 µM | 6.45 µM and 18.5 µM | 22.3 µM and 29.6 µM |  | 32.4 µM | 5.07 µM and 10.2 µM | 2.89 µM and 6.81 µM |  |  |  |  |  |  |  | 
COC(=O)C1=C(C(=O)OC)SC(=C(Cl)C(=S)Sc2ccccc2N)S1 | 41.5 µM | 59.4 µM | 27.7 µM | 64.6 µM | > 100 µM | 49.2 µM | > 100 µM | 59.2 µM | > 100 µM | > 100 µM | 22.3 µM | 41.6 µM | 19.3 µM | 20.5 µM | 13.2 µM | 28.1 µM | 80.8 µM | 19.9 µM | 68.7 µM | 41.3 µM
CCN(CC)CCCC(C)Nc1c2ccc(C)cc2nc2ccc(OC)cc12 (stereo unspecified) | 21.6 µM | 55.1 µM | 6.46 µM | 4.14 µM | 3.02 µM | 3.03 µM | 10.6 µM | 3.25 µM | 8.98 µM | 15.7 µM | 0.6 µM | 2.68 µM | 2.11 µM | 3.12 µM | 0.585 µM | 1.75 µM | 1.13 µM | 1.65 µM | 2.92 µM | 2.42 µM
CCOc1c(Cl)cc(CNC(C)C(O)c2ccccc2)cc1OC (stereo unspecified) | 96.4 µM | > 100 µM | 43.1 µM | > 100 µM | 87.4 µM | 30.6 µM | 68.9 µM | > 100 µM | 54.7 µM | > 100 µM | 43.9 µM | 15.1 µM | 24.3 µM | 38.7 µM | 19.2 µM | 40.1 µM | 21.6 µM | 16.6 µM | 20.9 µM | 41.1 µM
C[C@]12CC[C@@H]3c4ccc(O)cc4C(O)C[C@H]3[C@@H]1CCC2=O (stereo partly specified) | > 100 µM | > 100 µM | > 100 µM | > 100 µM | > 100 µM | > 100 µM | > 100 µM | > 100 µM | > 100 µM | > 100 µM | > 100 µM | > 100 µM | > 100 µM | > 100 µM | > 100 µM | > 100 µM | 61.1 µM | > 100 µM | > 100 µM | > 100 µM
COC(=O)C1=C(CS(=O)c2ccccc2[N+](=O)[O-])ON(C)C1c1ccccc1 (stereo unspecified) | > 100 µM | 42.6 µM | > 100 µM | > 100 µM | > 100 µM | > 100 µM | 78 µM | > 100 µM | > 100 µM | > 100 µM |  |  |  |  |  |  |  |  |  | 
